Test results taken from patent publication US20050271676A1, “Inducing cellular immune responses to human immunodeficiency virus-1 using peptide and nucleic acid compositions” (Epimmune Inc., priority 1993, published 2005).
No end group written: not given here.

Columns and labels:
HLA-A*0301 = molecular target: T1, HLA-A*0301 (Homo sapiens, UniProt P04439); assay: purified HLA class I binding assay, A*0301
T1 construct: endogenous in cells; host or cells: GM3107

HLA-A*1101 = HLA-A*1101 (Homo sapiens, UniProt P04439, A114D/D185E/E176A/F33Y/L180Q/S129P/T187R); assay: purified HLA class I binding assay, A*1101
HLA-A*3101 = HLA-A*3101 (Homo sapiens, UniProt P04439, A270S/D185E/E176V/E277Q/F33T/G231S/G80R/H175R/I121M/I218V/I322F/K168Q/L300P/L318F/M331R/P217A/Q94H/R138Q/T323A/T345S/T97I/V358M); assay: purified HLA class I binding assay, A*3101
HLA-A*3301 = HLA-A*3301 (Homo sapiens, UniProt P04439, A270S/D185E/E176V/E277Q/E87N/F33T/G231S/H175R/I121M/I218V/I322F/K168Q/K210R/L300P/L318F/M331R/P217A/Q86R/Q94H/R138Q/T323A/T345S/T97I/V358M/Y195H); assay: purified HLA class I binding assay, A*3301
HLA-DRB1*0301 (DR3) = molecular target: T2, HLA-DRB1*0301 (DR3) (Homo sapiens, UniProt P01903+P01911, A100K/A102G/A103R/A169T/F55Y/I96L/K41T/L162R/M171V/P40S/Q125H/Q178H/Q39Y/R42S/S66N/T106N/T262R/W38E/Y61H); assay: purified HLA class II binding assay, DRB1*0301 (DR3), pH 4.5
T2 construct: endogenous in cells; host or cells: MAT
T2 sequence (P01903 26-254 partner, other chains not shown): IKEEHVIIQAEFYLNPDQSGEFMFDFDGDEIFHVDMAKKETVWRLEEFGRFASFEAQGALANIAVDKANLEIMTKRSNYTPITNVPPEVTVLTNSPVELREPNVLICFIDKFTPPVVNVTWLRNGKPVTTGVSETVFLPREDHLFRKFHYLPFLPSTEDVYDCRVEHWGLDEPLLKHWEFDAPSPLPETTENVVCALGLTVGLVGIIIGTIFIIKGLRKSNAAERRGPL

HLA-DRB1*0401 (DR4w4) = molecular target: T3, HLA-DRB1*0401 (DR4w4) (Homo sapiens, UniProt P01903+P01911, A100K/A169T/F76Y/I96L/K127E/L162R/M171V/N62H/P40V/Q125Y/R42H/S133A/S149N/S66Y/V115G/V209L/W38E); assay: purified HLA class II binding assay, DRB1*0401 (DR4w4)
T3 construct: endogenous in cells; host or cells: Preiss
T3 sequence (P01903 26-254 partner, other chains not shown): as above

HLA-DRB1*0405 (DR4w15) = HLA-DRB1*0405 (DR4w15) (Homo sapiens, UniProt P01903+P01911, A100R/A169T/D86S/F76Y/I96L/K127E/L162R/M171V/N62H/P40V/Q125Y/R42H/S133A/S149N/S66Y/V115G/V209L/W38E); assay: purified HLA class II binding assay, DRB1*0405 (DR4w15)
HLA-DRB1*0701 (DR7) = molecular target: T4, HLA-DRB1*0701 (DR7) (Homo sapiens, UniProt P01903+P01911, A100R/A102G/A103Q/D57E/D86V/E43K/F76Y/K127E/L162R/M171V/P40G/Q125H/Q99D/R33Q/R42Y/R54Q/S133A/S66F/T210M/V115G/Y107V/Y59L/Y89S); assay: biochemical; assay type: binding
T4 construct: endogenous in cells; host or cells: Pitout

HLA-DRB1*0802 (DR8w2) = molecular target: T5, HLA-DRB1*0802 (DR8w2) (Homo sapiens, UniProt P01903+P01911, A100R/A103L/A169T/F76Y/H45Y/I96F/K41T/L162R/M171V/P40S/Q125H/Q178H/Q39Y/Q99D/R218S/R42G/S66Y/V115G/W38E); assay: biochemical; assay type: binding
T5 construct: endogenous in cells

HLA-DRB1*0901 (DR9) = molecular target: T6, HLA-DRB1*0901 (DR9) (Homo sapiens, UniProt P01903+P01911, A100R/A103E/D57H/D86V/F55Y/F60I/F76Y/I96F/K127E/L162R/M171V/P40D/Q125H/Q99R/R33Q/R42F/S133A/S66N/T210M/V115G/W38K/Y107V/Y59G/Y89S); assay: biochemical; assay type: binding
T6 construct: endogenous in cells

HLA-DRB1*1101 (DR5w11) = molecular target: T7, HLA-DRB1*1101 (DR5w11) (Homo sapiens, UniProt P01903+P01911, A100R/A169T/A87E/I96F/K41T/L162R/M171V/P40S/Q125H/Q178H/Q39Y/Q99D/R42S/S66Y/T262R/V115G/W38E); assay: biochemical; assay type: binding
T7 construct: endogenous in cells
T7 sequence (P01903 26-254, other chains not shown): as the sequence (P01903 26-254 partner, other chains not shown) above

HLA-DRB1*1201 (DR5w12) = molecular target: T8, HLA-DRB1*1201 (DR5w12) (Homo sapiens, UniProt P01903+P01911, A100R/A169T/D57E/D86V/F55L/H45Y/K41T/L162R/M171V/P40S/Q125H/Q178H/Q39Y/Q99D/R42G/S66L/T262R/V114A/V67L/W38E/Y59H/Y61H/Y89S); assay: purified HLA class II binding assay, DRB1*1201 (DR5w12)
T8 construct: endogenous in cells

HLA-DRB1*1302 (DR6w19) = HLA-DRB1*1302 (DR6w19) (Homo sapiens, UniProt P01903+P01911, A100E/A169T/K41T/L162R/M171V/P40S/Q125H/Q178H/Q39Y/Q99D/R42S/S66N/T262R/V115G/W38E/Y61H); assay: purified HLA class II binding assay, DRB1*1302 (DR6w19)
HLA-DRB5*0101 (DR2w2β2) = molecular target: T9, HLA-DRB5*0101 (DR2w2β2) (Homo sapiens, UniProt P01903+Q30154); assay: biochemical; assay type: binding
T9 construct: expressed in transfected cells

HLA-DRB1*1501 (DR2w2β1) = molecular target: T10, HLA-DRB1*1501 (DR2w2β1) (Homo sapiens, UniProt P01903+P01911); assay: purified HLA class II binding assay, DRB1*1501 (DR2w2β1)
T10 construct: expressed in transfected cells

HLA-A*0101 = HLA-A*0101 (Homo sapiens, UniProt P04439, A114D/A174V/A182V/D101N/D185E/E176A/E190D/L180R/Q94H/R68K/S129P/T187R/V100A/V91M/W191G); assay: biochemical; assay type: binding
HLA-B*5401 = HLA-B*5401 (Homo sapiens, UniProt P01889, A329T/C349S/D138N/D201E/E176V/E187T/E204Q/E69G/I76V/K202T/L119W/R155S/R180L/S121T/S35A/S48A/V127L/V306I/V36M/Y140L); assay: biochemical
[1] = HIV DR super motif peptides, unit not given

CC[C@H](C)[C@H](NC(=O)[C@H](Cc1ccccc1)NC(=O)[C@@H](NC(=O)[C@H](C)N)C(C)C)C(=O)N[C@@H](Cc1c[nH]cn1)C(=O)N[C@@H](CC(N)=O)C(=O)N[C@@H](Cc1ccccc1)C(=O)N[C@@H](CCCCN)C(=O)N[C@@H](CCCNC(=N)N)C(=O)O [1193.03]
IC50 (HLA-A*0301): 64.7 nM
IC50 (HLA-A*1101): 3.3 nM
IC50 (HLA-A*3101): 5.1 nM
IC50 (HLA-A*3301): 107 nM

CC[C@H](C)[C@H](NC(=O)[C@H](C)NC(=O)[C@@H]1CCCN1C(=O)[C@@H](N)CO)C(=O)N[C@@H](Cc1ccccc1)C(=O)N[C@@H](CCC(N)=O)C(=O)N[C@@H](CO)C(=O)N[C@@H](CO)C(=O)N[C@@H](CCSC)C(=O)N[C@H](C(=O)N[C@@H](CCCCN)C(=O)N[C@H](C(=O)N[C@@H](CC(C)C)C(=O)N[C@@H](CCC(=O)O)C(=O)N1CCC[C@H]1C(=O)O)[C@@H](C)CC)[C@@H](C)O [Peptide 27.0344]
IC50 (HLA-DRB1*0301 (DR3)): > 20000 nM
IC50 (HLA-DRB1*0401 (DR4w4)): 3570 nM
IC50 (HLA-DRB1*0405 (DR4w15)): 109 nM
IC50 (HLA-DRB1*0701 (DR7)): 68 nM
IC50 (HLA-DRB1*0802 (DR8w2)): 3270 nM
IC50 (HLA-DRB1*0901 (DR9)): 33 nM
IC50 (HLA-DRB1*1101 (DR5w11)): 741 nM
IC50 (HLA-DRB1*1201 (DR5w12)): > 20000 nM
IC50 (HLA-DRB1*1302 (DR6w19)): 13 nM

CC(C)C[C@H](NC(=O)[C@H](CCCCN)NC(=O)[C@@H](NC(=O)[C@H](CC(C)C)NC(=O)[C@@H]1CCCN1C(=O)[C@@H]1CCCN1C(=O)[C@@H](NC(=O)[C@H](CC(N)=O)NC(=O)[C@@H](NC(=O)[C@H](Cc1ccccc1)NC(=O)[C@H](CCC(=O)O)NC(=O)[C@@H](N)Cc1c[nH]c2ccccc12)C(C)C)[C@@H](C)O)C(C)C)C(=O)N[C@@H](Cc1c[nH]c2ccccc12)C(=O)N[C@@H](Cc1ccc(O)cc1)C(=O)N[C@@H](CCC(N)=O)C(=O)O [Peptide 27.0354]
IC50 (HLA-DRB1*0401 (DR4w4)): 28 nM
IC50 (HLA-DRB1*0405 (DR4w15)): 20 nM
IC50 (HLA-DRB1*0701 (DR7)): 15 nM
IC50 (HLA-DRB1*0802 (DR8w2)): 350 nM
IC50 (HLA-DRB1*0901 (DR9)): 39 nM
IC50 (HLA-DRB1*1201 (DR5w12)): 1360 nM
IC50 (HLA-DRB1*1302 (DR6w19)): 90 nM
IC50 (HLA-DRB5*0101 (DR2w2β2)): 2.1 nM

CC[C@H](C)[C@H](NC(=O)[C@H](C)N)C(=O)N[C@@H](Cc1ccccc1)C(=O)N[C@@H](CCC(N)=O)C(=O)N[C@@H](CO)C(=O)N[C@@H](CO)C(=O)N[C@@H](CCSC)C(=O)N[C@H](C(=O)N[C@@H](CCCCN)C(=O)O)[C@@H](C)O [Peptide 966.01]
IC50 (HLA-A*0301): 10 nM
IC50 (HLA-A*1101): 10 nM
IC50 (HLA-A*3101): 12000 nM
IC50 (HLA-A*3301): 96700 nM

CC[C@H](C)[C@H](NC(=O)CNC(=O)[C@H](CCCCN)NC(=O)[C@H](Cc1c[nH]cn1)NC(=O)[C@H](C)NC(=O)[C@@H]1CCCN1C(=O)[C@@H](NC(=O)[C@H](Cc1c[nH]c2ccccc12)NC(=O)[C@H](C)NC(=O)[C@H](CC(C)C)NC(=O)[C@H](Cc1ccc(O)cc1)NC(=O)[C@@H](NC(=O)[C@@H](N)CCCCN)C(C)C)C(C)C)C(=O)NCC(=O)NCC(=O)O [Peptide 1280.03]
IC50 (HLA-DRB1*0301 (DR3)): > 20000 nM
IC50 (HLA-DRB1*0901 (DR9)): 250 nM
IC50 (HLA-DRB1*1101 (DR5w11)): 71 nM
IC50 (HLA-DRB1*1201 (DR5w12)): 12600 nM
IC50 (HLA-DRB1*1302 (DR6w19)): 2500 nM
IC50 (HLA-DRB1*1501 (DR2w2β1)): 25 nM
IC50 (HLA-DRB5*0101 (DR2w2β2)): 24 nM

ASGYIEAEVIPAFTG
DR3 binding (HLA-DRB1*0301 (DR3); [1]): −0.0043
DR4w4 binding (HLA-DRB1*0401 (DR4w4); [1]): 0.2300
DR7 binding (HLA-DRB1*0701 (DR7)): 0.0710
DR8w2 binding (HLA-DRB1*0802 (DR8w2)): −0.0003
DR9 binding (HLA-DRB1*0901 (DR9)): 0.0320
DR5w11 binding (HLA-DRB1*1101 (DR5w11)): 0.0020
DR5w12 binding (HLA-DRB1*1201 (DR5w12); [1]): −0.0045
DR6w19 binding (HLA-DRB1*1302 (DR6w19); [1]): 0.0400
DR2 wβ1 binding (HLA-DRB1*1501 (DR2w2β1); [1]): −0.0003
DR2w2β2 binding (HLA-DRB5*0101 (DR2w2β2)): −0.0021

EVNIVTDSQY [Peptide 1.0431]
IC50 (HLA-A*0101): 472 nM

HSNWRAMASDFNLPP [Peptide 27.0364]
IC50 (HLA-DRB1*0301 (DR3)): > 20000 nM
IC50 (HLA-DRB1*0401 (DR4w4)): 11 nM
IC50 (HLA-DRB1*0405 (DR4w15)): 15 nM
IC50 (HLA-DRB1*0701 (DR7)): 472 nM
IC50 (HLA-DRB1*0802 (DR8w2)): 1960 nM
IC50 (HLA-DRB1*0901 (DR9)): 872 nM
IC50 (HLA-DRB1*1101 (DR5w11)): 95 nM
IC50 (HLA-DRB1*1201 (DR5w12)): > 20000 nM
IC50 (HLA-DRB1*1302 (DR6w19)): 4370 nM
IC50 (HLA-DRB1*1501 (DR2w2β1)): > 20000 nM

ILKEVYIIGVY
A*0101 (binding information) (HLA-A*0101): 0.0017

IPIHYCAPA [1296.01]
IC50 (HLA-B*5401): 3.7 nM

IVIWGKTPK [1193.0200]
IC50 (HLA-A*1101): 16.2 nM
IC50 (HLA-A*3101): 18.2 nM
IC50 (HLA-A*3301): 96.7 nM
